Where no end group is shown, it is not given here.
These molecules were tested on ApoL1 (assay: Spot phage ELISA, ApoL1). Details: ratio of signal for target protein over BSA background.
Assay type: binding, human
For “GCRFRQHWCKQDSDCLAGCVCLEQPECG (also: bicyclic or more (positions not given here)) [ApoL1 EET I-II 24]”, the S/N was 30.3. “GCRFWQWRCKQDSDCLAGCVCGWDRECG (also: bicyclic or more (positions not given here)) [ApoL1 EET I-II 32]” showed a S/N of 17.1. With “GCSWKCKQDSDCLAGCVCKMSQQCG (also: bicyclic or more (positions not given here)) [ApoL1 EET I-II 45]” the S/N was 4.7. “GCYYKCKQDSDCLAGCVCRTSNMCG (also: bicyclic or more (positions not given here)) [ApoL1 EET I-II 17]” was tested, and the S/N was 39.0. With “GPTQSPFGQCGGIGYSGPTVCASGTTCQVLRPNFSWCLPGAS (also: bicyclic or more (positions not given here)) [ApoL1 CBD 1]” the S/N was 21.6.

The molecules below were run on Lgr5ECD-Fc (assay: not given). Details: ratio of signal for target protein over BSA background.
Assay type: binding, human
In the case of “GCASGYWWRMWFCKQDSDCLAGCVCGPNGFCG (also: bicyclic or more (positions not given here)) [Lgr5ECD-Fc EET I-II 15]”, the S/N is reported as 14.1. Molecule “GCAVYQVYCKQDSDCLAGCVCAVKFHCG (also: bicyclic or more (positions not given here)) [Lgr5ECD-Fc EET I-II 12]” has a S/N of 21.6. “GCGFWWKYWFCKQDSDCLAGCVCGPNGFCG (also: bicyclic or more (positions not given here)) [Lgr5ECD-Fc EET I-II 20]” gave a S/N of 6.1. “GCGFWYMQWFCKQDSDCLAGCVCDPMGNCG (also: bicyclic or more (positions not given here)) [Lgr5ECD-Fc EET I-II 6]” showed a S/N of 36.2. Work on “GCGWWYRQWFCKQDSDCLAGCVCLETPECG (also: bicyclic or more (positions not given here)) [Lgr5ECD-Fc EET I-II 4]” yielded a S/N of 40.2. Work on “GCGYWFYEWFCKQDSDCLAGCVCDPNGFCG (also: bicyclic or more (positions not given here)) [Lgr5ECD-Fc EET I-II 11]” yielded a S/N of 21.7. “GCGYWWKKWFCKQDSDCLAGCVCGPNSFCG (also: bicyclic or more (positions not given here)) [Lgr5ECD-Fc EET I-II 9]” was tested, and the S/N was 29.2. With “GCGYWWKQWFCKQDSDCLAGCVCGPNGFCG (also: bicyclic or more (positions not given here)) [Lgr5ECD-Fc EET I-II 10]” the S/N was 25.7. “GCGYWWRLWFCKQDSDCLAGCVCGPNGSCG (also: bicyclic or more (positions not given here)) [Lgr5ECD-Fc EET I-II 14]” showed a S/N of 15.3. “GCGYWWRTWFCKQDSDCLAGCVCGPNGFCG (also: bicyclic or more (positions not given here)) [Lgr5ECD-Fc EET I-II 13]” showed a S/N of 17.1. “GCGYWWVQWFCKQDSDCLAGCVCGPNGFCD (also: bicyclic or more (positions not given here)) [Lgr5ECD-Fc EET I-II 17]” showed a S/N of 10.3. Molecule “GCGYWYKQWFCKQDSDCLAGCVCGPNGFCG (also: bicyclic or more (positions not given here)) [Lgr5ECD-Fc EET I-II 8]” has a S/N of 32.0. Work on “GCGYWYLEWFCKQDSDCLAGCVCGPNGFCG (also: bicyclic or more (positions not given here)) [Lgr5ECD-Fc EET I-II 18]” yielded a S/N of 9.9. “GCGYWYRIWFCKQDSDCLAGCVCGPNGFCG (also: bicyclic or more (positions not given here)) [Lgr5ECD-Fc EET I-II 3]” gave a S/N of 43.5. With “GCGYWYRVWFCKQDSDCLAGCVCQEPGPCG (also: bicyclic or more (positions not given here)) [Lgr5ECD-Fc EET I-II 2]” the S/N was 44.3. Work on “GCHEGYWWRQWFCKQDSDCLAGCVCGPNGFCG (also: bicyclic or more (positions not given here)) [Lgr5ECD-Fc EET I-II 16]” yielded a S/N of 11.5. “GCLFRNLRMACKQDSDCLAGCVCGPNGFCG (also: bicyclic or more (positions not given here)) [Lgr5ECD-Fc EET I-II 24]” gave a S/N of 13.9. Molecule “GCLYLGWLCKQDSDCLAGCVCDYFWYCVHqS (bicyclic or more) [Lgr5ECD-Fc EET I-II 25]” has a S/N of 19.5. “GCMNSYWYNQWFCKQDSDCLAGCVCGPNGFCG (also: bicyclic or more (positions not given here)) [Lgr5ECD-Fc EET I-II 1]” showed a S/N of 47.1. Molecule “GCNRSYWFRQWFCKQDSDCLAGCVCGPNGFCG (also: bicyclic or more (positions not given here)) [Lgr5ECD-Fc EET I-II 22]” has a S/N of 4.7. “GCQQGYWYWQWFCKQDSDCLAGCVCGPNGFCG (also: bicyclic or more (positions not given here)) [Lgr5ECD-Fc EET I-II 7]” was tested, and the S/N was 33.7. Molecule “GCRHGYWFHYWFCKQDSDCLAGCVCGPNGFCG (also: bicyclic or more (positions not given here)) [Lgr5ECD-Fc EET I-II 23]” has a S/N of 3.9. In the case of “GCSYWWRVWFCKQDSDCLAGCVCGPNGFCG (also: bicyclic or more (positions not given here)) [Lgr5ECD-Fc EET I-II 19]”, the S/N is reported as 7.2. In the case of “GCTSNFWYKQWFCKQDSDCLAGCVCGPNGFCG (also: bicyclic or more (positions not given here)) [Lgr5ECD-Fc EET I-II 5]”, the S/N is reported as 39.0. “GCWVNFWMCKQDSDCLAGCVCRVLDVCG (also: bicyclic or more (positions not given here)) [Lgr5ECD-Fc EET I-II 26]” showed a S/N of 11.7. “GCYHGYWYITWFCKQDSDCLAGCVCSQDEQCG (also: bicyclic or more (positions not given here)) [Lgr5ECD-Fc EET I-II 21]” was tested, and the S/N was 5.1. “GPAHSTYGRCGGIDYYGPTVCASGTTCLVLWPALSWCLPRSF (also: bicyclic or more (positions not given here)) [Lgr5ECD-Fc CBD 17]” gave a S/N of 26.2. In the case of “GPTQSAFGPCGGIGYSGHTVCASGTTCQVLSPNVSHCLPGAS (also: bicyclic or more (positions not given here)) [Lgr5ECD-Fc CBD 16]”, the S/N is reported as 6.6. Molecule “GPTQSAFGPCGGIGYSGPTVCASGTTCQVLSPDVSQCLPGAS (also: bicyclic or more (positions not given here)) [Lgr5ECD-Fc CBD 6]” has a S/N of 36.0. In the case of “GPTQSAFGPCGGIGYSGPTVCASGTTCQVLSPDVSRCLPGAS (also: bicyclic or more (positions not given here)) [Lgr5ECD-Fc CBD 8]”, the S/N is reported as 30.3. “GPTQSAYGQCGGIGYSGPTVCASGTTCQVLWPQVSWCLPGAS (also: bicyclic or more (positions not given here)) [Lgr5ECD-Fc CBD 13]” gave a S/N of 14.2. Work on “GPTQSHYGLCGGIGYSGPTVCASGTTCQVLSPEFSQCLPGAS (also: bicyclic or more (positions not given here)) [Lgr5ECD-Fc CBD 10]” yielded a S/N of 23.6. “GPTQSLFGMCGGIGYSGPTVCASGTTCQVLDPTTSQCLPGAS (also: bicyclic or more (positions not given here)) [Lgr5ECD-Fc CBD 2]” was tested, and the S/N was 42.7. “GPTQSOYGMCGGIGYSGPTVCASGTTCQVLDPTTSQCLPGAS (bicyclic or more) [Lgr5ECD-Fc CBD 18]” gave a S/N of 34.5. Molecule “GPTQSPGGICGGIGYSGPTVCASGTTCQVLSPEYSQCLPGAS (also: bicyclic or more (positions not given here)) [Lgr5ECD-Fc CBD 7]” has a S/N of 34.9. “GPTQSQFGMCGGIGYSGPTVCASGTTCQVLDPTTSQCLPGAS (also: bicyclic or more (positions not given here)) [Lgr5ECD-Fc CBD 4]” gave a S/N of 40.8. “GPTQSQYGICGGIGYSGPTVCASGTTCQVLSPDWSQCLPGAS (also: bicyclic or more (positions not given here)) [Lgr5ECD-Fc CBD 9]” showed a S/N of 23.7. “GPTQSQYGICGGIGYSGPTVCASGTTCQVLSPEFSQCLPGAS (also: bicyclic or more (positions not given here)) [Lgr5ECD-Fc CBD 14]” showed a S/N of 12.1. For “GPTQSQYGLCGGIGYSGPTVCASGTTCQVLDPTTSQCLPGAS (also: bicyclic or more (positions not given here)) [Lgr5ECD-Fc CBD 15]”, the S/N was 8.9. Work on “GPTQSTWGQCGGIGYSGPTVCASGTTCQVLWPTLSWCLPGAS (also: bicyclic or more (positions not given here)) [Lgr5ECD-Fc CBD 5]” yielded a S/N of 38.3. For “GPTQSTYGQCGGIGYSGPTVCASGTTCQVLWPALSWCLPGAS (also: bicyclic or more (positions not given here)) [Lgr5ECD-Fc CBD 1]”, the S/N was 43.0. With “GPTQSVYGICGGIGYSGPTVCASGTTCQVLDPTTSQCLPGAS (also: bicyclic or more (positions not given here)) [Lgr5ECD-Fc CBD 12]” the S/N was 18.9. For “GPTQSVYGICGGIGYSGPTVCASGTTCQVLSPEFSQCLPGAS (also: bicyclic or more (positions not given here)) [Lgr5ECD-Fc CBD 11]”, the S/N was 23.1. In the case of “GPTQSVYGMCGGIGYSGPTVCASGTTCQVLDPTTSQCLPGAS (also: bicyclic or more (positions not given here)) [Lgr5ECD-Fc CBD 3]”, the S/N is reported as 41.0.

What follows are molecules tested on HtrA1 (assay: not given). Details: not given.
Assay type: binding, human
In the case of `CC[C@H](C)[C@@H]1NC(=O)[C@H](CO)NC(=O)[C@@H]2CSSC[C@@H]3NC(=O)[C@H](CO)NC(=O)CNC(=O)[C@H]([C@@H](C)O)NC(=O)[C@H](CSSC[C@H](N)C(=O)N[C@@H](CCCCN)C(=O)NCC(=O)N[C@@H](CCCCN)C(=O)NCC(=O)N[C@@H](C)C(=O)N[C@@H](CCCCN)C(=O)N2)NC(=O)[C@H](CSSC[C@@H](C(=O)O)NC(=O)[C@H](CCCCN)NC(=O)CNC(=O)[C@H](CO)NC(=O)[C@H](CCCNC(=N)N)NC3=O)NC(=O)[C@H](C(C)C)NC(=O)[C@H](CCCCN)NC(=O)[C@H](Cc2c[nH]c3ccccc23)NC(=O)[C@@H]2CCCN2C(=O)[C@H](Cc2ccc(O)cc2)NC(=O)[C@H](C(C)C)NC(=O)[C@H](CO)NC(=O)[C@H](Cc2c[nH]c3ccccc23)NC(=O)[C@H](CCC(N)=O)NC1=O` [HtrA1_CnTx83], the S/N is reported as 16.1.
